Measured values reported in BigSolDB 2.1.

c1ccc2[nH]cnc2c1
solubility (mole fraction) (in 1,4-dioxane, 283.15 K): 0.0138 | solubility (mole fraction) (in 1,4-dioxane, 288.15 K): 0.0171 | solubility (mole fraction) (in 1,4-dioxane, 293.15 K): 0.0192 | solubility (mole fraction) (in 1,4-dioxane, 298.15 K): 0.0215 | solubility (mole fraction) (in 1,4-dioxane, 303.15 K): 0.0242 | solubility (mole fraction) (in 1,4-dioxane, 308.15 K): 0.0256 | solubility (mole fraction) (in 1,4-dioxane, 313.15 K): 0.0292 | solubility (mole fraction) (in 1,4-dioxane, 318.15 K): 0.0321 | solubility (mole fraction) (in 1,4-dioxane, 323.15 K): 0.0384 | solubility (mole fraction) (in 2-butanone, 283.15 K): 0.0222 | solubility (mole fraction) (in 2-butanone, 288.15 K): 0.0265 | solubility (mole fraction) (in 2-butanone, 293.15 K): 0.03 | solubility (mole fraction) (in 2-butanone, 298.15 K): 0.0341 | solubility (mole fraction) (in 2-butanone, 303.15 K): 0.0393 | solubility (mole fraction) (in 2-butanone, 308.15 K): 0.0451 | solubility (mole fraction) (in 2-butanone, 313.15 K): 0.0521 | solubility (mole fraction) (in 2-butanone, 318.15 K): 0.0582 | solubility (mole fraction) (in 2-butanone, 323.15 K): 0.0664 | solubility (mole fraction) (in acetone, 283.15 K): 0.0192 | solubility (mole fraction) (in acetone, 288.15 K): 0.022 | solubility (mole fraction) (in acetone, 293.15 K): 0.0256 | solubility (mole fraction) (in acetone, 298.15 K): 0.0296 | solubility (mole fraction) (in acetone, 303.15 K): 0.0342 | solubility (mole fraction) (in acetone, 308.15 K): 0.0398 | solubility (mole fraction) (in acetone, 313.15 K): 0.0452 | solubility (mole fraction) (in acetone, 318.15 K): 0.0525 | solubility (mole fraction) (in acetone, 323.15 K): 0.0576 | solubility (mole fraction) (in acetonitrile, 283.15 K): 0.00513 | solubility (mole fraction) (in acetonitrile, 288.15 K): 0.0063 | solubility (mole fraction) (in acetonitrile, 293.15 K): 0.00754 | solubility (mole fraction) (in acetonitrile, 298.15 K): 0.00905 | solubility (mole fraction) (in acetonitrile, 303.15 K): 0.0107 | solubility (mole fraction) (in acetonitrile, 308.15 K): 0.0123 | solubility (mole fraction) (in acetonitrile, 313.15 K): 0.0148 | solubility (mole fraction) (in acetonitrile, 318.15 K): 0.0166 | solubility (mole fraction) (in acetonitrile, 323.15 K): 0.0194 | solubility (mole fraction) (in ethanol, 283.15 K): 0.0767 | solubility (mole fraction) (in ethanol, 288.15 K): 0.0837 | solubility (mole fraction) (in ethanol, 293.15 K): 0.0911 | solubility (mole fraction) (in ethanol, 298.15 K): 0.0993 | solubility (mole fraction) (in ethanol, 303.15 K): 0.109 | solubility (mole fraction) (in ethanol, 308.15 K): 0.118 | solubility (mole fraction) (in ethanol, 313.15 K): 0.125 | solubility (mole fraction) (in ethanol, 318.15 K): 0.14 | solubility (mole fraction) (in ethanol, 323.15 K): 0.152 | solubility (mole fraction) (in ethyl acetate, 283.15 K): 0.00813 | solubility (mole fraction) (in ethyl acetate, 288.15 K): 0.0094 | solubility (mole fraction) (in ethyl acetate, 293.15 K): 0.0108 | solubility (mole fraction) (in ethyl acetate, 298.15 K): 0.0128 | solubility (mole fraction) (in ethyl acetate, 303.15 K): 0.0143 | solubility (mole fraction) (in ethyl acetate, 308.15 K): 0.0167 | solubility (mole fraction) (in ethyl acetate, 313.15 K): 0.0193 | solubility (mole fraction) (in ethyl acetate, 318.15 K): 0.0223 | solubility (mole fraction) (in ethyl acetate, 323.15 K): 0.0259 | solubility (mole fraction) (in isobutanol, 283.15 K): 0.0747 | solubility (mole fraction) (in isobutanol, 288.15 K): 0.083 | solubility (mole fraction) (in isobutanol, 293.15 K): 0.0947 | solubility (mole fraction) (in isobutanol, 298.15 K): 0.103 | solubility (mole fraction) (in isobutanol, 303.15 K): 0.114 | solubility (mole fraction) (in isobutanol, 308.15 K): 0.125 | solubility (mole fraction) (in isobutanol, 313.15 K): 0.134 | solubility (mole fraction) (in isobutanol, 318.15 K): 0.139 | solubility (mole fraction) (in isobutanol, 323.15 K): 0.156 | solubility (mole fraction) (in isobutyl acetate, 283.15 K): 0.00698 | solubility (mole fraction) (in isobutyl acetate, 288.15 K): 0.00808 | solubility (mole fraction) (in isobutyl acetate, 293.15 K): 0.00944 | solubility (mole fraction) (in isobutyl acetate, 298.15 K): 0.0103 | solubility (mole fraction) (in isobutyl acetate, 303.15 K): 0.0122 | solubility (mole fraction) (in isobutyl acetate, 308.15 K): 0.0137 | solubility (mole fraction) (in isobutyl acetate, 313.15 K): 0.016 | solubility (mole fraction) (in isobutyl acetate, 318.15 K): 0.0176 | solubility (mole fraction) (in isobutyl acetate, 323.15 K): 0.0197 | solubility (mole fraction) (in isopropanol, 283.15 K): 0.0636 | solubility (mole fraction) (in isopropanol, 288.15 K): 0.073 | solubility (mole fraction) (in isopropanol, 293.15 K): 0.0785 | solubility (mole fraction) (in isopropanol, 298.15 K): 0.0852 | solubility (mole fraction) (in isopropanol, 303.15 K): 0.0959 | solubility (mole fraction) (in isopropanol, 308.15 K): 0.109 | solubility (mole fraction) (in isopropanol, 313.15 K): 0.117 | solubility (mole fraction) (in isopropanol, 318.15 K): 0.13 | solubility (mole fraction) (in isopropanol, 323.15 K): 0.134 | solubility (mole fraction) (in isopropyl acetate, 283.15 K): 0.00761 | solubility (mole fraction) (in isopropyl acetate, 288.15 K): 0.00867 | solubility (mole fraction) (in isopropyl acetate, 293.15 K): 0.01 | solubility (mole fraction) (in isopropyl acetate, 298.15 K): 0.0113 | solubility (mole fraction) (in isopropyl acetate, 303.15 K): 0.0132 | solubility (mole fraction) (in isopropyl acetate, 308.15 K): 0.0152 | solubility (mole fraction) (in isopropyl acetate, 313.15 K): 0.0169 | solubility (mole fraction) (in isopropyl acetate, 318.15 K): 0.0191 | solubility (mole fraction) (in isopropyl acetate, 323.15 K): 0.0219 | solubility (mole fraction) (in methanol, 283.15 K): 0.0888 | solubility (mole fraction) (in methanol, 288.15 K): 0.097 | solubility (mole fraction) (in methanol, 293.15 K): 0.105 | solubility (mole fraction) (in methanol, 298.15 K): 0.113 | solubility (mole fraction) (in methanol, 303.15 K): 0.12 | solubility (mole fraction) (in methanol, 308.15 K): 0.129 | solubility (mole fraction) (in methanol, 313.15 K): 0.143 | solubility (mole fraction) (in methanol, 318.15 K): 0.157 | solubility (mole fraction) (in methanol, 323.15 K): 0.17 | solubility (mole fraction) (in methyl acetate, 283.15 K): 0.00781 | solubility (mole fraction) (in methyl acetate, 288.15 K): 0.00918 | solubility (mole fraction) (in methyl acetate, 293.15 K): 0.0108 | solubility (mole fraction) (in methyl acetate, 298.15 K): 0.0126 | solubility (mole fraction) (in methyl acetate, 303.15 K): 0.0146 | solubility (mole fraction) (in methyl acetate, 308.15 K): 0.0167 | solubility (mole fraction) (in methyl acetate, 313.15 K): 0.0198 | solubility (mole fraction) (in methyl acetate, 318.15 K): 0.0228 | solubility (mole fraction) (in methyl acetate, 323.15 K): 0.0265 | solubility (mole fraction) (in n-butanol, 283.15 K): 0.0857 | solubility (mole fraction) (in n-butanol, 288.15 K): 0.091 | solubility (mole fraction) (in n-butanol, 293.15 K): 0.105 | solubility (mole fraction) (in n-butanol, 298.15 K): 0.113 | solubility (mole fraction) (in n-butanol, 303.15 K): 0.121 | solubility (mole fraction) (in n-butanol, 308.15 K): 0.13 | solubility (mole fraction) (in n-butanol, 313.15 K): 0.141 | solubility (mole fraction) (in n-butanol, 318.15 K): 0.15 | solubility (mole fraction) (in n-butanol, 323.15 K): 0.161 | solubility (mole fraction) (in n-butyl acetate, 283.15 K): 0.0064 | solubility (mole fraction) (in n-butyl acetate, 288.15 K): 0.00759 | solubility (mole fraction) (in n-butyl acetate, 293.15 K): 0.00873 | solubility (mole fraction) (in n-butyl acetate, 298.15 K): 0.0102 | solubility (mole fraction) (in n-butyl acetate, 303.15 K): 0.0121 | solubility (mole fraction) (in n-butyl acetate, 308.15 K): 0.0144 | solubility (mole fraction) (in n-butyl acetate, 313.15 K): 0.0166 | solubility (mole fraction) (in n-butyl acetate, 318.15 K): 0.0182 | solubility (mole fraction) (in n-butyl acetate, 323.15 K): 0.0216 | solubility (mole fraction) (in n-pentanol, 283.15 K): 0.0983 | solubility (mole fraction) (in n-pentanol, 288.15 K): 0.105 | solubility (mole fraction) (in n-pentanol, 293.15 K): 0.109 | solubility (mole fraction) (in n-pentanol, 298.15 K): 0.119 | solubility (mole fraction) (in n-pentanol, 303.15 K): 0.129 | solubility (mole fraction) (in n-pentanol, 308.15 K): 0.137 | solubility (mole fraction) (in n-pentanol, 313.15 K): 0.143 | solubility (mole fraction) (in n-pentanol, 318.15 K): 0.155 | solubility (mole fraction) (in n-pentanol, 323.15 K): 0.165 | solubility (mole fraction) (in n-propanol, 283.15 K): 0.0798 | solubility (mole fraction) (in n-propanol, 288.15 K): 0.0896 | solubility (mole fraction) (in n-propanol, 293.15 K): 0.0961 | solubility (mole fraction) (in n-propanol, 298.15 K): 0.107 | solubility (mole fraction) (in n-propanol, 303.15 K): 0.113 | solubility (mole fraction) (in n-propanol, 308.15 K): 0.121 | solubility (mole fraction) (in n-propanol, 313.15 K): 0.137 | solubility (mole fraction) (in n-propanol, 318.15 K): 0.147 | solubility (mole fraction) (in n-propanol, 323.15 K): 0.156 | solubility (mole fraction) (in n-propyl acetate, 283.15 K): 0.00645 | solubility (mole fraction) (in n-propyl acetate, 288.15 K): 0.0076 | solubility (mole fraction) (in n-propyl acetate, 293.15 K): 0.009 | solubility (mole fraction) (in n-propyl acetate, 298.15 K): 0.0105 | solubility (mole fraction) (in n-propyl acetate, 303.15 K): 0.0127 | solubility (mole fraction) (in n-propyl acetate, 308.15 K): 0.0141 | solubility (mole fraction) (in n-propyl acetate, 313.15 K): 0.0165 | solubility (mole fraction) (in n-propyl acetate, 318.15 K): 0.0189 | solubility (mole fraction) (in n-propyl acetate, 323.15 K): 0.0219 | solubility (mole fraction) (in sec-butanol, 283.15 K): 0.0881 | solubility (mole fraction) (in sec-butanol, 288.15 K): 0.0973 | solubility (mole fraction) (in sec-butanol, 293.15 K): 0.105 | solubility (mole fraction) (in sec-butanol, 298.15 K): 0.11 | solubility (mole fraction) (in sec-butanol, 303.15 K): 0.117 | solubility (mole fraction) (in sec-butanol, 308.15 K): 0.127 | solubility (mole fraction) (in sec-butanol, 313.15 K): 0.137 | solubility (mole fraction) (in sec-butanol, 318.15 K): 0.151 | solubility (mole fraction) (in sec-butanol, 323.15 K): 0.162 | solubility (mole fraction) (in water, 283.15 K): 0.000498 | solubility (mole fraction) (in water, 288.15 K): 0.000604 | solubility (mole fraction) (in water, 293.15 K): 0.000739 | solubility (mole fraction) (in water, 298.15 K): 0.000874 | solubility (mole fraction) (in water, 303.15 K): 0.000994 | solubility (mole fraction) (in water, 308.15 K): 0.00115 | solubility (mole fraction) (in water, 313.15 K): 0.00133 | solubility (mole fraction) (in water, 318.15 K): 0.00156 | solubility (mole fraction) (in water, 323.15 K): 0.00184
